Results as given in ChEMBL document CHEMBL5528066, “Discovery of Novel N-(Anthracen-9-ylmethyl) Benzamide Derivatives as ZNF207 Inhibitors Promising in Treating Glioma” (J Med Chem, 2024).
Calls of active or inactive are those of the source. The rule behind the calls is not given here.

Key:
H4 [1] = test: Inhibition of colony formation in human H4 cells assessed as reduction in number of cell clones treated on day 1 and measured after 14 days by crystal violet staining based microscopic analysis; format: functional; details: dose 0.625-5 µM, time 14.0 day
H4 [2] = test: Inhibition of colony formation in human H4 cells assessed as reduction in colony area at 5 uM treated on day 1 and measured after 14 days by crystal violet staining based microscopic analysis relative to control; format: functional; details: H4, 336 h, time 14 day
LN-229 [3] = test: Inhibition of sphere formation in human LN-229 cells at 8 uM measured after 10 days in well containing 1 cells by microscopic analysis; format: functional, cell-based; details: time 10.0 day
Hs 683 [4] = test: Inhibition of sphere formation in human Hs 683 cells at 4 uM measured after 10 days in well containing 100 cells by microscopic analysis; format: functional, cell-based; details: time 10.0 day
[5] = biological target: T1, BUB3-interacting and GLEBS motif-containing protein ZNF207 (Homo sapiens, UniProt O43670); test: Binding affinity to ZNF207 in human H4 cells assessed as thermal stabilization by measuring melting temperature at 30 uM incubated for 3 hrs by CETSA (reference value: 48.9 degreeC); format: cell-based
[6] = Toxicity in female C57BL/6 mouse assessed as change in cellular structure of thymus at 45 mg/kg, po administered once a day for 2 weeks by H and E staining based analysis; format: organism-based; details: in vivo, 336 h
Hs 683 [7] = test: Inhibition of sphere formation in human Hs 683 cells assessed as fold reduction in sphere initiating frequency at 4 uM incubated for 10 days by microscopic analysis relative to control; format: functional; details: time 10 day
A549 = test: Antiproliferative activity against human A549 cells assessed as inhibition of cell growth incubated for 72 hrs by CCK-8 assay; format: functional, cell-based; details: A549, 72 h
LN-229 [8] = test: Antitumor activity against human LN-229 cells xenografted in BALB/c nude mouse assessed as tumor growth inhibition at 15 to 45 mg/kg, po administered once a day and measured every 2 days for 49 days relative to control; format: functional; details: dose 15-45 mg/kg, time 49 day
[9] = Drug concentration in female Sprague-Dawley rat spleen at 45 mg/kg, po measured after 8 hrs by LC-MS/MS analysis; format: ADME, organism-based; details: read-out: Ct
H4 [10] = test: Inhibition of sphere formation in human H4 cells at 8 uM measured after 10 days in well containing 10000 cells by microscopic analysis; format: functional, cell-based; details: time 10.0 day
H4 [11] = test: Inhibition of sphere formation in human H4 cells at 4 uM measured after 10 days in well containing 100 cells by microscopic analysis; format: functional, cell-based; details: time 10.0 day
LN-229-Luc = test: Antitumor activity against human Ln-229-Luc cells xenografted in BALB/c nude mouse assessed as increase in overall survival time at 45 mg/kg, po administered once a day and measured after 3 to 31 days; format: functional, organism-based; details: time 3-31 day
LN-229 [12] = test: Inhibition of sphere formation in human LN-229 cells at 2 uM measured after 10 days in well containing 10000 cells by microscopic analysis; format: functional, cell-based; details: time 10.0 day
LN-229 [13] = test: Inhibition of sphere formation in human LN-229 cells assessed as fold reduction in sphere initiating frequency at 1 uM incubated for 10 days by microscopic analysis relative to control; format: functional; details: time 10 day
LN-229 [14] = test: Inhibition of cell migration in human LN-229 cells assessed as reduction in wound closure ability at 5 uM measured after 24 hrs by wound healing assay relative to control; format: functional
H4 [15] = test: Antiproliferative activity against human H4 cells assessed as inhibition of cell growth measured after 72 hrs by CCK-8 assay; format: functional, cell-based; details: H4, 72 h
Hs 683 [16] = test: Inhibition of colony formation in human Hs 683 cells assessed as reduction in colony area at 5 uM treated on day 1 and measured after 14 days by crystal violet staining based microscopic analysis relative to control; format: functional; details: Hs 683, 336 h, time 14 day
[17] = Drug concentration in female Sprague-Dawley rat intestine at 45 mg/kg, po measured after 8 hrs by LC-MS/MS analysis; format: ADME, organism-based; details: read-out: Ct
MDR1 = test: Efflux ratio of apparent permeability across basolateral to apical side over apical to basolateral side in MDCKII-MDR1 cells at 1 uM incubated for 2 hrs by LC-MS/MS analysis; format: ADME, cell-based, Canis lupus familiaris; details: dog, MDCK-MDR1
NCI-H460 = test: Antiproliferative activity against human NCI-H460 cells assessed as inhibition of cell growth incubated for 72 hrs by CCK-8 assay; format: functional, cell-based; details: NCI-H460, 72 h
[18] = Drug concentration in male Sprague-Dawley rat heart at 45 mg/kg, po measured after 8 hrs by LC-MS/MS analysis; format: ADME, organism-based; details: read-out: Ct
[19] = Toxicity in male C57BL/6 mouse assessed as change in cellular structure of stomach at 45 mg/kg, po administered once a day for 2 weeks by H and E staining based analysis; format: organism-based; details: in vivo, 336 h
H4 [20] = test: Inhibition of sphere formation in human H4 cells at 4 uM measured after 10 days in well containing 10 cells by microscopic analysis; format: functional, cell-based; details: time 10.0 day
[21] = Drug concentration in male Sprague-Dawley rat stomach at 45 mg/kg, po measured after 8 hrs by LC-MS/MS analysis; format: ADME, organism-based; details: read-out: Ct
Hs 683 [22] = test: Inhibition of sphere formation in human Hs 683 cells at 4 uM measured after 10 days in well containing 10000 cells by microscopic analysis; format: functional, cell-based; details: time 10.0 day
LN-229 [23] = test: Inhibition of sphere formation in human LN-229 cells at 8 uM measured after 10 days in well containing 10 cells by microscopic analysis; format: functional, cell-based; details: time 10.0 day
LN-229 [24] = test: Inhibition of sphere formation in human LN-229 cells at 8 uM measured after 10 days in well containing 100 cells by microscopic analysis; format: functional, cell-based; details: time 10.0 day
[25] = biological target: T1, BUB3-interacting and GLEBS motif-containing protein ZNF207; test: Binding affinity to ZNF207 in human U-251MG cells assessed as thermal stabilization by measuring melting temperature at 30 uM incubated for 3 hrs by CETSA (reference value: 48.7 degreeC); format: cell-based
Hs 683 [26] = test: Inhibition of sphere formation in human Hs 683 cells assessed as fold reduction in sphere initiating frequency at 1 uM incubated for 10 days by microscopic analysis relative to control; format: functional; details: time 10 day
Hs 683 [27] = test: Inhibition of sphere formation in human Hs 683 cells at 2 uM measured after 10 days in well containing 10 cells by microscopic analysis; format: functional, cell-based; details: time 10.0 day
U-251 = test: Inhibition of sphere formation in human U-251MG cells assessed as fold reduction in sphere initiating frequency at 8 uM incubated for 10 days by microscopic analysis relative to control; format: functional; details: time 10 day
[28] = biological target: T1, BUB3-interacting and GLEBS motif-containing protein ZNF207; test: Binding affinity to ZNF207 in human U-251MG cells assessed as thermal stabilization by measuring increase in melting temperature at 30 uM incubated for 3 hrs by CETSA; format: cell-based
LN-229 [29] = test: Inhibition of sphere formation in human LN-229 cells assessed as fold reduction in sphere initiating frequency at 2 uM incubated for 10 days by microscopic analysis relative to control; format: functional; details: time 10 day
H4 [30] = test: Inhibition of sphere formation in human H4 cells assessed as fold reduction in sphere initiating frequency at 2 uM incubated for 10 days by microscopic analysis relative to control; format: functional; details: time 10 day
H4 [31] = test: Inhibition of sphere formation in human H4 cells assessed as fold reduction in sphere initiating frequency at 1 uM incubated for 10 days by microscopic analysis relative to control; format: functional; details: time 10 day
LN-229 [32] = test: Downregulation of SOX2 protein expression in human LN-229 cells at 2 to 4 uM incubated for 48 hrs by Western blot analysis; format: functional, cell-based; details: dose 2-4 µM

T1 sequence (O43670 whole entry): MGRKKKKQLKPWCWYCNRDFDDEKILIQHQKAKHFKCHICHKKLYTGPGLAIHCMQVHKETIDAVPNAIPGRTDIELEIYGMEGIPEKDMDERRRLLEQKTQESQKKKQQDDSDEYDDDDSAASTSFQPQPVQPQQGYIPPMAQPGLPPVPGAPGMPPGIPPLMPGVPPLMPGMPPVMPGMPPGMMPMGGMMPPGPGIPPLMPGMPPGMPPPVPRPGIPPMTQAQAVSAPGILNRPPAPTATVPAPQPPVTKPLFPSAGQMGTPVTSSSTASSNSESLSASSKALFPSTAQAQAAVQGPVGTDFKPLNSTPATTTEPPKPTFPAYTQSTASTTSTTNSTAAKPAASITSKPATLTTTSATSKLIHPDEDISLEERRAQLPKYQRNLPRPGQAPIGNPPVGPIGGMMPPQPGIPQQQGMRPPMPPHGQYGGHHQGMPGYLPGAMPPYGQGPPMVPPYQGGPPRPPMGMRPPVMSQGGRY

Tm [5]: 50.8 °C
IC50 (A549): 9.68 µM
concentration at 8 h [9]: 2330 ng/g
concentration at 8 h [17]: 442 ng/g
efflux ratio at 2 h, 1 µM (MDR1): 3.25
IC50 (NCI-H460): 15.6 µM
concentration at 8 h [18]: 193 ng/g
concentration at 8 h [21]: 608 ng/g
Tm [25]: 53.9 °C
ΔTm [28]: 5.2 °C
Structure (SMILES): N#CC1(C(=O)NCCC2CCN(Cc3ccccc3)CC2)CC2(Br)c3ccccc3C1c1ccccc12 (racemic)
inhibition (H4 [1]): Dose-Dependent Effect
inhibition at 5 µM (H4 [2]): 100%
inhibition (LN-229 [3]): Active
inhibition (Hs 683 [4]): Active
Activity [6]: Non-Toxic
fold change (FC) (Hs 683 [7]): 39.23
TGI (LN-229 [8]): ~55%
inhibition (H4 [10]): inactive
inhibition (H4 [11]): Active
Activity (LN-229-Luc): Active
inhibition (LN-229 [12]): inactive
fold change (FC) (LN-229 [13]): 4.37
inhibition at 5 µM (LN-229 [14]): 16.6%
IC50 (H4 [15]): 0.72 µM
inhibition at 5 µM (Hs 683 [16]): 100%
Activity [19]: Non-Toxic
inhibition (H4 [20]): Active
inhibition (Hs 683 [22]): inactive
inhibition (LN-229 [23]): Active
inhibition (LN-229 [24]): Active
fold change (FC) (Hs 683 [26]): 2.8
inhibition (Hs 683 [27]): Active
fold change (FC) (U-251): 166
fold change (FC) (LN-229 [29]): 22.43
fold change (FC) (H4 [30]): 25.31
fold change (FC) (H4 [31]): 14.09
Activity (LN-229 [32]): Active
